Columns and labels:
[1] = test system: target genes of PPARδ in murine myocytes (C2C12); assay: Expression of target genes of PPARδ (PDK4, CPT1b, UCP2, UCP3) in murine myocytes, quantitative RT-PCR; assay type: cell-based; settings: murine myocytes in vitro
Excerpt: It is established that regulation of the expression of these genes is directly controlled by PPARδ in this cell type. The more the expression of the genes is increased, the greater the stimulating action of the compound according to the invention on metabolism in the muscle cells.
Cells from the murine cell line C2C12 (obtained from ECACC) are cultivated in DMEM medium (Gibco; 41965-039) with addition of 1% L-glutamine (Gibco; 25030), 1% of penicillin/streptomycin (VWR; BWSTL0022/100) and 10% decomplemented fetal calf serum (FCS. Gibco; 10270-106).
The cells are seeded on 24-well plates at a density of 50·10^3 cells/well. At confluence, the medium is replaced with a differentiating medium (basal medium with addition of 2% of horse serum (Gibco; 26050-088)), then incubated at 37° C. and 5% CO2 for 4 days in order to differentiate them to myocytes.
After 5 days of differentiation, the cells are put in a deprivation medium (basal medium without serum) for 6 hours. The cells are then treated with the compounds according to the invention in the deprivation medium. Compounds 2, 4, 7, 11, 39, 40, 46, 49 and 72 were in dose effect, corresponding to 1×, 10× and 100× their EC50 PPARδ. The compounds according to the invention were dissolved in dimethylsulfoxide (DMSO, Sigma; D5879). The cells were treated for 24 h at 37° C., 5% CO2. The effect of the compounds according to the invention was compared with the effect of DMSO alone.
After treatment, the total RNA is extracted from the cells using the NucleoSpine® 96 RNA kit (Macherey Nagel, Hoerdt, France) following the manufacturer's instructions.
1 μg of total RNA (quantified based on the UV spectrophotometer reading) was then reverse-transcribed to complementary DNA by reaction for 1 hour at 37° C. in a total volume of 30 μl containing buffer 1× (Invitrogen), 1.5 mM of DTT, 0.18 mM of dNTPs (Promega), 200 ng of pdN6 (Amersham), 30 U of RNase inhibitor (Promega) and 1 μl of MMLV-RT (Invitrogen).
The quantitative PCR experiments were carried out using the MyiQ Single-Color Real-Time PCR Detection System (Biorad, Marnes-la-Coquette, France) and were performed using the iQ SYBR Green Supermix kit following the supplier's recommendations, in 96-well plates, on 5 μl of diluted reverse-transcription reaction mixtures with a hybridization temperature of 60° C. Primer pairs specific to the PDK4, CPT1b, UCP2 and UCP3 genes under investigation were used:
The amount of fluorescence emitted is directly proportional to the amount of complementary DNA present at the start of the reaction and amplified during PCR. For each target investigated, a range is produced by successive dilutions of a pool constituted of a few microliters of various reverse-transcription reaction mixtures. The relative expression levels of each target are thus determined using the efficacy curves obtained with the points in the range.
The levels of expression of the genes of interest were then normalized relative to the level of expression of the reference gene 36B4 (whose specific primers are: sense primer: 5′-[…]-3′ (SEQ ID No. 19) and antisense primer: 5′-[…]-3′ (SEQ ID No. 20)). The induction factor, i.e. the ratio of the relative signal (induced by the compound according to the invention) to the mean of the relative values of the control group, was then calculated. The higher this factor, the greater the activating character of the compounds according to the invention with respect to gene expression. The final result is represented as the mean of the induction values in each experimental group.

[2] = test system: MCP1 and MMP9 genes in human monocytes (THP1); assay: Expression of MCP1 and MMP9 in human monocytes stimulated with PMA, quantitative RT-PCR; assay type: cell-based; settings: 24 h
Protocol: The antiinflammatory effects of the compounds according to the invention were evaluated by measuring the secretion and expression of macrophages chemoattractant protein (MCP1) and of matrix metalloproteinase 9 (MMP9) by monocytes treated with the compounds according to the invention for 24 hours and stimulated with PMA (phorbol 12-myristate 13-acetate, which causes an inflammatory response of the cells). The more the amount of MCP1 secreted is reduced, the greater the inhibitory action of the compounds according to the invention on the inflammatory reaction. Similarly, the more the expression of the genes coding for MCP1 and MMP9 is inhibited, the greater the antiinflammatory effect of the compounds according to the invention.
The THP1 human monocyte line (obtained from ATCC) is cultivated in RPMI1640 medium with addition of 25 mM Hepes (Gibco; 42401-018), 1% glutamine (Gibco; 25030-24) 1% penicillin/streptomycin (Biochrom AG; A 2213) and 10% decomplemented fetal calf serum (FCS. Gibco; 10270-106).
The cells are seeded on 24-well plates (Primaria BD Falcon) at a density of 8.70·10^5 cells/well in the treatment medium (same composition as the culture medium but with 0.2% of decomplemented fetal calf serum) and in the presence of 5 ng/mL of phorbol 12-myristate 13-acetate (PMA) for inducing the inflammatory response.
The compounds according to the invention were tested at 0.1, 0.3 and/or at 1 μm, and dissolved in dimethylsulfoxide (DMSO, Fluka; 41640). The cells are treated for 24 h at 37° C., 5% CO2. The effect of the compound according to the invention is compared with the effect of DMSO alone.
After treatment, the total RNA is extracted from the cells using the NucleoSpin® 96 RNA kit (Macherey Nagel, Hoerdt, France) following the manufacturer's instructions.
1 μg of total RNA (quantified based on the reading of the UV spectrophotometer) was then reverse-transcribed to complementary DNA by reaction for 1 hour at 37° C. in a total volume of 30 μl containing buffer 1× (Invitrogen), 1.5 mM of DTT, 0.18 mM of dNTPs (Promega), 200 ng of pdN6 (Amersham), 30 U of RNase inhibitor (Promega) and 1 μl of MMLV-RT (Invitrogen).
The quantitative PCR experiments were carried out using the MyiQ Single-Color Real-Time PCR Detection System (Biorad, Marnes-la-Coquette, France) and were performed using the iQ SYBR Green Supermix kit following the supplier's recommendations, in 96-well plates, on 5 μl of diluted reverse-transcription reaction mixture with a hybridization temperature of 60° C. Primer pairs specific to the MCP1 and MMP9 genes under investigation were used:
The amount of fluorescence emitted is directly proportional to the amount of complementary DNA present at the start of the reaction and amplified during PCR. […] The relative expression levels of each target are thus determined using the efficacy curves obtained with the points in the range.
The levels of expression of the genes of interest were then normalized, […] relative to the level of expression of the reference gene 36B4 (whose specific primers are: sense primer: 5′-[…]-3′ (SEQ ID No. 19) and antisense primer: 5′-[…]-3′ (SEQ ID No. 20)). The induction factor, i.e. the ratio of the relative signal (induced by the compound according to the invention) to the mean of the relative values of the control group, was then calculated. […]

Row | Structure (SMILES) | expression of genes involved in carbohydrate and lipid metabolism and in thermoregulation [1] | expression of MCP1 in human monocytes ([2]; at 0.1 and 0.3 μm) | expression of MCP1 in human monocytes ([2]; at 1 μm) | expression of MMP9 in human monocytes ([2]; at 1 μm)
1 | CC(C)(Oc1ccc(CCC(=O)c2ccc(-c3ccc(C(F)(F)F)cc3)s2)c(Cl)c1Cl)C(=O)O [Compound 2, 2-(2,3-dichloro-4-(3-oxo-3-(5-(4-(trifluoromethyl)phenyl)thien-2-yl)propyl)phenoxy)-2-methylpropanoic acid] | stimulating effects | significant decrease | – | –
2 | CC(C)(Oc1ccc(CCC(O)c2ccc(-c3ccc(C(F)(F)F)cc3)s2)c(Cl)c1Cl)C(=O)O (stereo not drawn) [Compound 4, 2-(2,3-dichloro-4-(3-hydroxy-3-(5-(4-(trifluoromethyl)phenyl)thien-2-yl)propyl)phenoxy)-2-methylpropanoic acid] | stimulating effects | – | – | –
3 | CC(C)(Oc1ccc(CCC(OCc2ccccc2)c2ccc(-c3ccc(C(F)(F)F)cc3)s2)c(Cl)c1Cl)C(=O)O (stereo not drawn) [Compound 7, 2-(4-(3-(benzyloxy)-3-(5-(4-(trifluoromethyl)phenyl)thien-2-yl)propyl)-2,3-dichlorophenoxy)-2-methylpropanoic acid] | stimulating effects | – | significant decrease | significant decrease
4 | CC(C)(Oc1ccc(CCC(=O)c2cc(-c3ccc(C(F)(F)F)cc3)cs2)c(Cl)c1Cl)C(=O)O [Compound 11, 2-(2,3-dichloro-4-(3-oxo-3-(4-(4-(trifluoromethyl)phenyl)thien-2-yl)propyl)phenoxy)-2-methylpropanoic acid] | stimulating effects | – | significant decrease | significant decrease

Reference: patent US8088819B2, “Derivatives of substituted 3-phenyl-1-(phenylthienyl)propan-1-ones and of 3-phenyl-1-(phenylfuranyl) propan-1-ones, preparation and use” (priority 2006, dated 2012)
